Experiments:
JNK1 = JNK1 (Homo sapiens (Human), UniProt P45983); experiment: In Vitro JNK1 Assay (TR-FRET, phosphorylation of GST-c-Jun); format: biochemical; conditions: 0.2 nM active JNK1 kinase, 26.7 nM GST-c-Jun, 2 μM ATP, 30 min at room temperature
How it was run: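 GST-c-Jun (residues 1-79) phosphorylation by JNK1 in 50 mM HEPES pH 7.0, MgCl2, 1 mM DTT, 0.1 mM Na3VO4, 0.2 mg/mL BSA, 30 min at room temperature. Stopped with EDTA plus anti-phospho-c-Jun antibody and read by TR-FRET 1 hr later. IC50 from percent inhibition over 10 serial dilutions.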

[1] = test system: phospho(Ser63)-c-jun in HK-2 cells; experiment: Cell-Based Assay for JNK Inhibitors (in-cell ELISA, phospho(Ser63)-c-jun after TNFα); conditions: HK-2 cells (human proximal tubule cells), 60 minutes compound, then 10 ng/mL TNFα for 30 minutes
How it was run: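 HK-2 human proximal tubule cells were seeded at 40,000 cells/well, cultured 24 h, then serum-starved 16–24 h before TNFα stimulation with compound. Phospho(Ser63)-c-jun was quantified by in-cell ELISA on fixed, permeabilised cells, using a rabbit phospho-specific primary (overnight, 4 °C) and an HRP-linked anti-rabbit secondary. Absorbance was read at 450 nm.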

JNK1, sequence (P45983 whole entry, the tested form may be a part): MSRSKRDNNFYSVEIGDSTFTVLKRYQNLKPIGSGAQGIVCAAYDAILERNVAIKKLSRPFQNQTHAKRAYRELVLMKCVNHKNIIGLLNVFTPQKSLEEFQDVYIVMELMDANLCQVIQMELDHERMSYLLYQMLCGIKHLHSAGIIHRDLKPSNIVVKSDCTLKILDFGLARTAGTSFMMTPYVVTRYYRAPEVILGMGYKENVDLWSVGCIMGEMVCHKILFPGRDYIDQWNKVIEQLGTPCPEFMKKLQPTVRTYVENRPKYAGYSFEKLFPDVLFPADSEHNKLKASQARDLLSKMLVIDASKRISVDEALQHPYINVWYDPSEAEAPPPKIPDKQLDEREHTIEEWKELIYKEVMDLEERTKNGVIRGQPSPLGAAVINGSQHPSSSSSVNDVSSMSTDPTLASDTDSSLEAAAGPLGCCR

Question: Which IC50 (JNK1) does the source give for `COC(=O)c1c(CNC(=O)c2ccc(-c3nnn(C)n3)cc2)c(=O)c2ccc(Cl)cc2n1-c1ccccc1` [Example I-129, 7-Chloro-3-{[4-(2-methyl-2H-tetrazol-5-yl)-benzoylamino]-methyl}-4-oxo-1-phenyl-1,4-dihydro-quinoline-2-carboxylic acid methyl ester] here?
Answer: 50 nM

Question: And the EC50 [1]?
Answer: 11000 nM

Question: Which results are given for `O=C(NCc1cn(-c2ccccc2)c2cc(Cl)ccc2c1=O)c1cnc(N2CCS(=O)(=O)CC2)s1` [Example I-97, 2-(1,1-Dioxo-thiomorpholin-4-yl)-thiazole-5-carboxylic acid (7-chloro-4-oxo-1-phenyl-1,4-dihydro-quinolin-3-ylmethyl)-amide]?
Answer: IC50 (JNK1): 69 nM; EC50 [1]: 39000 nM

Question: How did the IC50 (JNK1) turn out when `COc1cccc(Cn2ccc(C(=O)NCc3cn(-c4ccccc4)c4cc(Cl)ccc4c3=O)cc2=O)c1` [Example I-38, 1-(3-Methoxy-benzyl)-2-oxo-1,2-dihydro-pyridine-4-carboxylic acid (7-chloro-4-oxo-1-phenyl-1,4-dihydro-quinolin-3-ylmethyl)-amide] was run?
Answer: 72 nM

Question: What about the EC50 [1] of the same compound?
Answer: 16000 nM

Question: For `COc1cc2ncnc(NCc3cn(-c4ccccc4)c4cc(Cl)ccc4c3=O)c2cc1OC` [Example I-171, 7-Chloro-3-[(6,7-dimethoxy-quinazolin-4-ylamino)-methyl]-1-phenyl-1H-quinolin-4-one], which IC50 (JNK1) is on record?
Answer: 23 nM

Question: And the EC50 [1]?
Answer: 88000 nM

Question: For `CN(C)C(=O)c1c(CNC(=O)c2cnn(C)c2)c(=O)c2ccc(Cl)cc2n1-c1ccccc1` [Example I-23, 7-Chloro-3-{[(1-methyl-1H-pyrazole-4-carbonyl)-amino]-methyl}-4-oxo-1-phenyl-1,4-dihydro-quinoline-2-carboxylic acid dimethylamide], which IC50 (JNK1) is on record?
Answer: 780 nM

Question: What about the EC50 [1] of the same compound?
Answer: 87000 nM

Question: Which IC50 (JNK1) does the source give for `O=C(NCc1cn(-c2ccccc2)c2cc(Cl)ccc2c1=O)c1ccc(N2CCCC2)nc1` [Example I-84, N-(7-Chloro-4-oxo-1-phenyl-1,4-dihydro-quinolin-3-ylmethyl)-6-pyrrolidin-1-yl-nicotinamide] here?
Answer: 100 nM

Question: And the EC50 [1]?
Answer: 52000 nM

Question: For `COC(=O)c1c(CNC(=O)c2cccc(OC)c2)c(=O)c2ccc(Cl)cc2n1-c1ccccc1` [Example I-135, 7-Chloro-3-[(3-methoxybenzoylamino)-methyl]-4-oxo-1-phenyl-1,4-dihydro-quinoline-2-carboxylic acid methyl ester], which IC50 (JNK1) is on record?
Answer: 8 nM

Question: And the EC50 [1]?
Answer: 4800 nM

Question: `O=C(NCc1cn(-c2ccccc2)c2cc(Cl)ccc2c1=O)c1ccn(Cc2ccc(Cl)cc2)c(=O)c1` [Example I-34, 1-(4-Chloro-benzyl)-2-oxo-1,2-dihydro-pyridine-4-carboxylic acid (7-chloro-4-oxo-1-phenyl-1,4-dihydro-quinolin-3-ylmethyl)-amide] was tested. Which IC50 (JNK1) did it give?
Answer: 44 nM

Question: And the EC50 [1]?
Answer: 12000 nM

Question: `CN(C)C(=O)c1c(CNC(=O)c2ccc(N3CCOCC3)nc2)c(=O)c2ccc(Cl)cc2n1-c1ccccc1` [Example I-13, 7-Chloro-3-{[(6-morpholin-4-yl-pyridine-3-carbonyl)-amino]-methyl}-4-oxo-1-phenyl-1,4-dihydro-quinoline-2-carboxylic acid dimethylamide] was tested. Which IC50 (JNK1) did it give?
Answer: 35 nM

Question: What about the EC50 [1] of the same compound?
Answer: 37000 nM

Question: With `COC(=O)c1c(CNC(=O)c2ccc(OC)cc2)c(=O)c2ccc(OC)cc2n1-c1ccccc1` [Example I-164, 3-[(4-methoxy-benzoylamino)-methyl]-7-methoxy-4-oxo-1-phenyl-1,4-dihydro-quinoline-2-carboxylic acid methyl ester] as the compound, how does the IC50 (JNK1) read?
Answer: 54 nM

Question: What about the EC50 [1] of the same compound?
Answer: 8900 nM

Question: Which results are given for `O=C(NCc1cn(-c2ccccc2)c2cc(Cl)ccc2c1=O)c1ccn(Cc2ccccc2)c(=O)c1` [Example I-29, 1-Benzyl-2-oxo-1,2-dihydro-pyridine-4-carboxylic acid (7-chloro-4-oxo-1-phenyl-1,4-dihydro-quinolin-3-ylmethyl)-amide]?
Answer: IC50 (JNK1): 13 nM; EC50 [1]: 5000 nM

Question: What does the source list for `O=C(NCc1cn(-c2ccccc2)c2cc(Cl)ccc2c1=O)c1ccc2nc[nH]c2c1` [Example I-33, 3H-Benzoimidazole-5-carboxylic acid (7-chloro-4-oxo-1-phenyl-1,4-dihydro-quinolin-3-ylmethyl)-amide]?
Answer: IC50 (JNK1): 41 nM; EC50 [1]: 100000 nM

Question: `COC(=O)c1c(CNC(=O)c2ccc(-c3cnco3)cc2)c(=O)c2ccc(Cl)cc2n1-c1ccccc1` [Example I-110, 7-Chloro-3-[(4-oxazol-5-yl-benzoylamino)-methyl]-4-oxo-1-phenyl-1,4-dihydro-quinoline-2-carboxylic acid methyl ester] was tested. Which IC50 (JNK1) did it give?
Answer: 4 nM

Question: And the EC50 [1]?
Answer: 4000 nM

Question: With `O=C(NCc1cn(-c2ccccc2)c2cc(Cl)ccc2c1=O)c1ccc(N2CCS(=O)(=O)CC2)nc1` [Example I-80, N-(7-Chloro-4-oxo-1-phenyl-1,4-dihydro-quinolin-3-ylmethyl)-6-(1,1-dioxo-thiomorpholin-4-yl)-nicotinamide] as the compound, how does the IC50 (JNK1) read?
Answer: 56 nM

Question: What about the EC50 [1] of the same compound?
Answer: 12000 nM

Question: What does the source list for `COC(=O)c1c(CNC(=O)c2ccccc2)c(=O)c2ccccc2n1-c1ccccc1` [Example I-151, 3-(Benzoylamino-methyl)-4-oxo-1-phenyl-1,4-dihydro-quinoline-2-carboxylic acid methyl ester]?
Answer: IC50 (JNK1): 39 nM; EC50 [1]: 14000 nM
